Measurements taken from the supplement of paper PMC6045584.
± gives the standard deviation of the averaged measurements.

Each test system was assayed with C[C@]1(O)C[C@@H](c2nc(-c3ccc4ccc(-c5ccccc5)nc4c3)c3c(N)nccn32)C1 [OSI-906] (assay: surviving fraction relative to DMSO-only wells; higher = less growth inhibition). Details: 10 nM; exposure time: 5 days.
Summary of the method: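 Inhibitors were tested at 0.5, 1, 5, 10, 50, 100, 500 and 1000 nM, applied continuously for five days beginning 24 hours after log-phase tumour cells were seeded at 250–500 per well in 384-well plates. CellTiter-Glo luminescence served as the viability measure, expressed as surviving fraction against the median of DMSO-only wells. Each line, screened three times, was kept only with replicate Pearson r >0.7 and median Z' >0.3.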

| Test System | surviving fraction |
| --- | --- |
| ASKA SYNOVIAL | 1.07 ± 0.071 |

Same assay, conditions: 50 nM; exposure time: 5 days

| Test System | surviving fraction |
| --- | --- |
| JURKAT HAEMATOPOIETIC AND LYMPHOID TISSUE | 0.98 ± 0.067 |
| SJSA1 BONE | 0.917 ± 0.21 |
| YAMATO SYNOVIAL | 1.36 ± 0.22 |
| C33A CERVIX | 1.02 ± 0.13 |
| PCI30 HEADNECK | 1.07 ± 0.051 |
| SCC003 HEADNECK | 1.02 ± 0.022 |
| HUO3N1 BONE | 0.975 ± 0.047 |
| T47D BREAST | 0.982 ± 0.058 |
| NOS1 BONE | 1 ± 0.059 |
| HELA CERVIX | 1.03 ± 0.035 |
| NY BONE | 1 ± 0.011 |
| CASKI CERVIX | 0.976 ± 0.067 |
| BT549 BREAST | 1.11 ± 0.18 |
| COLO320DM LARGE INTESTINE | 0.875 ± 0.04 |
| MDAMB361 BREAST | 0.847 ± 0.067 |
| HOSMNG BONE | 0.854 ± 0.086 |
| A549 LUNG | 0.96 ± 0.029 |
| CAL51 BREAST | 1.01 ± 0.02 |
| OSHN BONE | 0.945 ± 0.0072 |
| MCF7 BREAST | 0.831 ± 0.018 |
| HT1080 SOFT TISSUE | 0.979 ± 0.039 |

| Test System | surviving fraction |
| --- | --- |
| MDAMB157 BREAST | 0.957 ± 0.11 |
| 143B BONE | 0.959 ± 0.083 |
| SIHA CERVIX | 1.04 ± 0.057 |
| MDAMB134 BREAST | 0.732 ± 0.016 |
| SG32 HEADNECK | 0.845 ± 0.021 |
| NCIH441 LUNG | 1.04 ± 0.034 |
| CCK81 LARGE INTESTINE | 0.726 ± 0.17 |
| SG31 HEADNECK | 1 ± 0.22 |
| OS25HAL BONE | 0.854 ± 0.039 |
| HCC1954 BREAST | 0.457 ± 0.063 |
| VP229 BREAST | 0.925 ± 0.1 |
| 22RV1 PROSTATE | 0.902 ± 0.049 |
| MDAMB231 BREAST | 0.957 ± 0.031 |
| RDES SOFT TISSUE | 1.1 ± 0.019 |
| LM7 BONE | 0.867 ± 0.011 |
| HMT3552 BREAST | 1.05 ± 0.05 |
| SNU475 LIVER | 0.942 ± 0.037 |
| HCC38 BREAST | 1.1 ± 0.19 |
| HU09 BONE | 0.854 ± 0.11 |
| ASKA SYNOVIAL | 1.11 ± 0.13 |

Same assay, conditions: 100 nM; exposure time: 5 days

| Test System | surviving fraction |
| --- | --- |
| JURKAT HAEMATOPOIETIC AND LYMPHOID TISSUE | 0.965 ± 0.039 |
| SJSA1 BONE | 1.62 ± 0.052 |
| YAMATO SYNOVIAL | 1.46 ± 0.13 |
| C33A CERVIX | 1.05 ± 0.14 |
| PCI30 HEADNECK | 1.01 ± 0.077 |
| SCC003 HEADNECK | 1.04 ± 0.013 |
| HUO3N1 BONE | 0.88 ± 0.029 |
| T47D BREAST | 0.954 ± 0.028 |
| NOS1 BONE | 0.884 ± 0.057 |
| HELA CERVIX | 1.07 ± 0.036 |
| NY BONE | 0.977 ± 0.035 |
| CASKI CERVIX | 0.965 ± 0.064 |
| BT549 BREAST | 0.984 ± 0.059 |
| COLO320DM LARGE INTESTINE | 0.818 ± 0.076 |
| MDAMB361 BREAST | 0.842 ± 0.011 |
| HOSMNG BONE | 0.993 ± 0.1 |
| A549 LUNG | 0.97 ± 0.031 |
| CAL51 BREAST | 0.992 ± 0.031 |
| OSHN BONE | 0.927 ± 0.013 |
| MCF7 BREAST | 0.847 ± 0.029 |
| HT1080 SOFT TISSUE | 0.921 ± 0.027 |

| Test System | surviving fraction |
| --- | --- |
| MDAMB157 BREAST | 0.855 ± 0.056 |
| 143B BONE | 0.99 ± 0.011 |
| SIHA CERVIX | 1.01 ± 0.065 |
| MDAMB134 BREAST | 0.72 ± 0.0071 |
| SG32 HEADNECK | 0.793 ± 0.071 |
| NCIH441 LUNG | 1.03 ± 0.028 |
| CCK81 LARGE INTESTINE | 0.668 ± 0.13 |
| SG31 HEADNECK | 0.833 ± 0.1 |
| OS25HAL BONE | 0.762 ± 0.016 |
| HCC1954 BREAST | 0.384 ± 0.012 |
| VP229 BREAST | 0.867 ± 0.048 |
| 22RV1 PROSTATE | 0.928 ± 0.077 |
| MDAMB231 BREAST | 0.947 ± 0.013 |
| RDES SOFT TISSUE | 1.05 ± 0.086 |
| LM7 BONE | 0.771 ± 0.048 |
| HMT3552 BREAST | 0.954 ± 0.023 |
| SNU475 LIVER | 0.921 ± 0.013 |
| HCC38 BREAST | 1.12 ± 0.019 |
| HU09 BONE | 0.785 ± 0.027 |
| ASKA SYNOVIAL | 1.12 ± 0.045 |

Same assay, conditions: 500 nM; exposure time: 5 days

| Test System | surviving fraction |
| --- | --- |
| JURKAT HAEMATOPOIETIC AND LYMPHOID TISSUE | 1.02 ± 0.012 |
| SJSA1 BONE | 0.785 ± 0.31 |
| YAMATO SYNOVIAL | 1.17 ± 0.21 |
| C33A CERVIX | 1.06 ± 0.096 |
| PCI30 HEADNECK | 0.939 ± 0.075 |
| SCC003 HEADNECK | 0.976 ± 0.04 |
| HUO3N1 BONE | 0.779 ± 0.031 |
| T47D BREAST | 0.868 ± 0.018 |
| NOS1 BONE | 0.465 ± 0.028 |
| HELA CERVIX | 1 ± 0.081 |
| NY BONE | 0.903 ± 0.023 |
| CASKI CERVIX | 0.982 ± 0.068 |
| BT549 BREAST | 1.1 ± 0.096 |
| COLO320DM LARGE INTESTINE | 0.572 ± 0.048 |
| MDAMB361 BREAST | 0.758 ± 0.015 |
| HOSMNG BONE | 0.957 ± 0.056 |
| A549 LUNG | 0.935 ± 0.027 |
| CAL51 BREAST | 0.948 ± 0.029 |
| OSHN BONE | 0.758 ± 0.012 |
| MCF7 BREAST | 0.722 ± 0.036 |
| HT1080 SOFT TISSUE | 0.899 ± 0.03 |

| Test System | surviving fraction |
| --- | --- |
| MDAMB157 BREAST | 0.872 ± 0.037 |
| 143B BONE | 0.9825 ± 0.0078 |
| SIHA CERVIX | 0.935 ± 0.046 |
| MDAMB134 BREAST | 0.587 ± 0.016 |
| SG32 HEADNECK | 0.596 ± 0.084 |
| NCIH441 LUNG | 0.841 ± 0.019 |
| CCK81 LARGE INTESTINE | 0.414 ± 0.13 |
| SG31 HEADNECK | 0.615 ± 0.042 |
| OS25HAL BONE | 0.354 ± 0.015 |
| HCC1954 BREAST | 0.314 ± 0.04 |
| VP229 BREAST | 0.767 ± 0.14 |
| 22RV1 PROSTATE | 0.911 ± 0.14 |
| MDAMB231 BREAST | 0.922 ± 0.014 |
| RDES SOFT TISSUE | 0.84 ± 0.015 |
| LM7 BONE | 0.48 ± 0.023 |
| HMT3552 BREAST | 0.828 ± 0.073 |
| SNU475 LIVER | 0.944 ± 0.011 |
| HCC38 BREAST | 1.16 ± 0.14 |
| HU09 BONE | 0.517 ± 0.087 |
| ASKA SYNOVIAL | 0.966 ± 0.083 |

Same assay, conditions: 1000 nM; exposure time: 5 days

| Test System | surviving fraction |
| --- | --- |
| JURKAT HAEMATOPOIETIC AND LYMPHOID TISSUE | 0.99 ± 0.021 |
| SJSA1 BONE | 0.388 ± 0.031 |
| YAMATO SYNOVIAL | 1.12 ± 0.077 |
| C33A CERVIX | 0.985 ± 0.011 |
| PCI30 HEADNECK | 0.931 ± 0.033 |
| SCC003 HEADNECK | 0.845 ± 0.04 |
| HUO3N1 BONE | 0.794 ± 0.035 |
| T47D BREAST | 0.85 ± 0.018 |
| NOS1 BONE | 0.462 ± 0.029 |
| HELA CERVIX | 1.01 ± 0.048 |
| NY BONE | 0.915 ± 0.038 |
| CASKI CERVIX | 0.982 ± 0.051 |
| BT549 BREAST | 0.94 ± 0.067 |
| COLO320DM LARGE INTESTINE | 0.528 ± 0.032 |
| MDAMB361 BREAST | 0.797 ± 0.033 |
| HOSMNG BONE | 1 ± 0.032 |
| A549 LUNG | 0.908 ± 0.025 |
| CAL51 BREAST | 0.922 ± 0.074 |
| OSHN BONE | 0.732 ± 0.027 |
| MCF7 BREAST | 0.661 ± 0.013 |

| Test System | surviving fraction |
| --- | --- |
| HT1080 SOFT TISSUE | 0.869 ± 0.057 |
| MDAMB157 BREAST | 0.884 ± 0.086 |
| 143B BONE | 0.989 ± 0.023 |
| SIHA CERVIX | 0.966 ± 0.026 |
| MDAMB134 BREAST | 0.616 ± 0.088 |
| SG32 HEADNECK | 0.498 ± 0.048 |
| NCIH441 LUNG | 0.737 ± 0.048 |
| CCK81 LARGE INTESTINE | 0.327 ± 0.058 |
| SG31 HEADNECK | 0.493 ± 0.042 |
| OS25HAL BONE | 0.256 ± 0.037 |
| HCC1954 BREAST | 0.35 ± 0.023 |
| VP229 BREAST | 0.665 ± 0.11 |
| 22RV1 PROSTATE | 0.803 ± 0.11 |
| MDAMB231 BREAST | 0.908 ± 0.032 |
| RDES SOFT TISSUE | 0.555 ± 0.032 |
| LM7 BONE | 0.435 ± 0.025 |
| HMT3552 BREAST | 0.748 ± 0.035 |
| SNU475 LIVER | 0.963 ± 0.015 |
| HCC38 BREAST | 1.07 ± 0.24 |
| HU09 BONE | 0.481 ± 0.04 |
